{"source": "PubChem BioAssay AID1259420", "about": "(Broad Institute, 2018)", "note": "“And” between values parts separate entries of the source, which are not always exact repeats. Equal values may be shown once. Inconclusive results are not listed. The source made the active and inactive calls. How the calls were made is not given here.", "data": [{"test_system": "Toxoplasma gondii growth in host cells, no IFN-gamma", "assay": "compound activity on host-cell Toxoplasma growth – dose response (AID 1259420);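 further: host cells were HeLa; final incubation lasted 72 hours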", "values": [{"molecule": "CS(=O)(=O)NCc1cnc2n1CCN(Cc1cccs1)CC2", "AC50": "25.6 µM"}, {"molecule": "CN1c2ccc(-c3ccc(C#N)cc3)cc2[C@@H]2[C@@H](CCN2S(=O)(=O)c2ccc(F)cc2)[C@@H]1CO", "AC50": "13 µM"}, {"molecule": "Cc1ccccc1-c1ccc(C2[C@H]3CNC[C@@H]2N3Cc2ccc3c(c2)OCO3)cc1", "note": "(stereo partly drawn)", "AC50": "> 20 µM (inactive)"}, {"molecule": "CCc1cnc(N2[C@H](C#N)[C@@H](c3ccc(C#Cc4ccccc4F)cc3)[C@@H]2CO)s1", "AC50": "16.3 µM"}, {"molecule": "O=C(Cc1ccccc1)N1CCC2(CC1)CC(N1CCCC1)CO2", "note": "(stereo not drawn)", "AC50": "> 39 µM (inactive)"}, {"molecule": "CN(C)C(=O)c1ccc(-c2ccc3c(c2)[C@H]2[C@H](CCN2C(=O)C2CCCC2)[C@@H](CO)N3C)cc1", "AC50": "14.6 µM"}, {"molecule": "Cc1ccn(CCNc2nccc(-c3c(C)nn(C)c3C)n2)n1", "AC50": "> 39 µM (inactive)"}, {"molecule": "CC(C)CNC(=O)c1nc2c(s1)CCN(C(=O)NCc1ccccc1)CC2", "AC50": "18.3 µM"}, {"molecule": "O=C(CCCCCNc1nc(=S)[nH]c2ccccc12)N1CCC(O)(c2cccc(C(F)(F)F)c2)CC1", "AC50": "> 39 µM (inactive)"}, {"molecule": "COc1cccc(S(=O)(=O)N2CCCCN3[C@H](CO)[C@H](c4ccc(-c5ccccc5)cc4)[C@H]3C2)c1", "AC50": "13.1 µM"}, {"molecule": "CCc1cnc(N2[C@H](C#N)[C@H](c3ccc(-c4cccc(F)c4)cc3)[C@H]2CO)s1", "AC50": "22.6 µM"}, {"molecule": "COc1ccc(C#Cc2ccc([C@@H]3[C@H]4CN(C(=O)NC(C)C)CC(=O)N4[C@H]3CO)cc2)cc1", "AC50": "> 39 µM (inactive)"}, {"molecule": "CN(C)C(=O)c1cccc(-c2ccc3c(c2)[C@@H]2[C@@H](CCN2C(=O)Cc2ccccc2)[C@@H](CO)N3)c1", "AC50": "21.7 µM"}, {"molecule": "N#Cc1cccc(-c2ccc(C3[C@@H]4CN(C(=O)Nc5ccc(C(F)(F)F)cc5)C[C@H]3N4)cc2)c1", "note": "(stereo partly drawn)", "AC50": "14.4 µM and 14.6 µM"}, {"molecule": "COc1ccccc1S(=O)(=O)N1CC[C@@H]2[C@@H](CO)Nc3ccc(-c4ccc(C#N)cc4)cc3[C@@H]21", "AC50": "19.8 µM"}, {"molecule": "COc1cccc(NC(=O)N2CC(=O)N3[C@H](C2)[C@@H](c2ccc(C#CCC4CCCC4)cc2)[C@@H]3CO)c1", "AC50": "15.8 µM and 22.4 µM"}, {"molecule": "COc1cccc(S(=O)(=O)N2CCCCN3[C@@H](CO)[C@@H](c4ccc(C#CCC(C)C)cc4)[C@@H]3C2)c1", "AC50": "12.1 µM and 10.1 µM"}, {"molecule": "CC(C)NC(=O)N1CCC2(CC1)OCCN(CCO)c1ccccc12", "AC50": "> 39 µM (inactive)"}, {"molecule": "CCCNC(=O)c1cc(-c2cnc(NCc3ccccc3)nc2)cn1C", "AC50": "15.1 µM"}, {"molecule": "C/C=C/c1ccc([C@H]2[C@@H](C#N)N(C(=O)NC3CCCCC3)[C@H]2CO)cc1", "AC50": "20.9 µM"}, {"molecule": "COc1ccccc1-c1ccc(C2[C@@H]3CN(S(=O)(=O)c4ccc(C)cc4)C[C@H]2N3)cc1", "note": "(stereo partly drawn)", "AC50": "15.2 µM and > 20 µM (inactive)"}, {"molecule": "CCCCCCC(C)(C)c1ccc(C2CC(O)CCC2CCCO)c(O)c1", "note": "(stereo not drawn)", "AC50": "17.9 µM"}, {"molecule": "Cn1cnc(S(=O)(=O)N2CCCCN3[C@H](CO)[C@H](c4ccc(C5=CCCCC5)cc4)[C@@H]3C2)c1", "AC50": "23.4 µM and 22.7 µM"}, {"molecule": "COc1ccccc1-c1ccc2c(c1)[C@H]1[C@H](CCN1C(=O)C1CCC1)[C@H](CO)N2", "AC50": "13 µM"}, {"molecule": "CN1CCN(C(=O)c2nn(C)c3c2CCN(S(C)(=O)=O)C3)CC1", "AC50": "> 39 µM (inactive)"}, {"molecule": "CN1c2ccc(-c3ccccc3)cc2[C@@H]2[C@@H](CCN2C(=O)NC2CCCCC2)[C@H]1CO", "AC50": "8.76 µM"}, {"molecule": "Cc1ccc(N2CCC3(CC2)CN(CC#N)Cc2ccccc23)nn1", "AC50": "> 39 µM (inactive)"}, {"molecule": "O=C(Cc1ccccc1)N1CC(=O)N2[C@H](CO)[C@@H](c3ccc(-c4ccc(F)cc4)cc3)[C@@H]2C1", "AC50": "19.2 µM"}, {"molecule": "C[C@H]1CN([C@@H](C)CO)C(=O)c2cccc(NS(=O)(=O)c3ccc(F)cc3)c2O[C@H]1CN(C)Cc1ccc(Cl)c(Cl)c1", "AC50": "17.6 µM"}, {"molecule": "COc1ccccc1CN1CC[C@@H]2[C@H]1c1cc(-c3cccc(C(=O)N(C)C)c3)ccc1N[C@@H]2CO", "AC50": "20.2 µM"}, {"molecule": "O=C(NC1CCCC1)N1CC[C@H]2CN(Cc3ccc(Cl)cc3)S(=O)(=O)[C@@H]2CC1", "AC50": "28.5 µM"}, {"molecule": "COCC1CN(C(=O)Cc2ccsc2)Cc2nccn2C1", "note": "(stereo not drawn)", "AC50": "28.3 µM"}, {"molecule": "CN1c2ccc(C#Cc3cccnc3)cc2[C@@H]2[C@@H](CCN2C(=O)c2cccc(F)c2)[C@@H]1CO", "AC50": "30.3 µM"}, {"molecule": "CC1CCCCN1CCNc1nc(-c2ccc(Cl)cc2)nc2ccccc12", "note": "(stereo not drawn)", "AC50": "11.8 µM"}, {"molecule": "CC(=O)O.CC(=O)O.[Cl][Pt+2][Cl].[NH-]C1CCCCC1.[NH2-]", "AC50": "19.4 µM"}, {"molecule": "O=C(CC1CC1)N1CC[C@@H]2[C@@H](CO)Nc3ccc(-c4ccc(F)cc4)cc3[C@@H]21", "AC50": "20.2 µM"}, {"molecule": "CCN1C[C@@H](COC)[C@]2(CCN(C(=O)COc3ccccc3C)C2)C1", "AC50": "> 39 µM (inactive)"}, {"molecule": "COc1cccc(-c2ccc3c(c2)[C@@H]2[C@@H](CCN2S(=O)(=O)c2ccccc2F)[C@@H](CO)N3)c1", "AC50": "16 µM"}, {"molecule": "CCN1CCN(Cc2ccc(Nc3nc(-c4ccc(OC)cc4)nc4ccccc34)cc2)CC1", "AC50": "13.5 µM"}, {"molecule": "Cc1cc(C(=O)Nc2ccc3c(c2)C(=O)N(C)[C@H]2CC[C@H](CC(=O)NCc4ccc(-c5ccccc5)cc4)O[C@H]2CO3)no1", "AC50": "14 µM"}, {"molecule": "CN1c2ccc(-c3ccccc3)cc2[C@@H]2[C@@H](CCN2C(=O)CC2CC2)[C@@H]1CO", "AC50": "25.3 µM"}, {"molecule": "COc1cc(N2CCO[C@H]3[C@@H](Oc4ncccc4F)CC[C@H]32)ncn1", "AC50": "6.3 µM"}, {"molecule": "CN(C)Cc1noc2c1CN(Cc1nccn1C)CC2", "AC50": "> 39 µM (inactive)"}]}]}
